How the values were obtained:
PI3K beta = target: T1, PI3K beta (Homo sapiens, UniProt P42338); experiment: PI3K beta kinase assay (Kinase-Glo luminescence); assay type: biochemical
T1 construct: for the full-length p110-b subunit are generated and fused by overlapping PCR; p85(iSH2) fusion partner (see partner chain) (N); His tag (C); made in house; host or cells: baculovirus; Tn5 (Trichoplusia ni) or TiniPro insect cells
How it was run: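 Enzyme: BV949 p85(iSH2)-Gly linker-p110β FL-His, 25 nM. Substrate: PI 10 μg/mL. ATP: 1 μM, added to start. Buffer: Tris pH 7.5 10 mM, MgCl2 3 mM, NaCl 50 mM, CHAPS 0.05%, DTT 1 mM. RT, 60 min. Readout: Kinase-Glo. IC50 by 4-parameter fit.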

mTOR = target: T2, mTOR (Homo sapiens, UniProt P42345); experiment: Biochemical assay for m-TOR by TR-FRET; details: 8 μM ATP, 400 nM GFP-4EBP1, 0.5 nM mTOR
T2 construct: purchased Invitrogen Corporation (Carlsbad/CA, USA) PV4753
How it was run: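 Steps: ATP (8 μM final) plus GFP-4EBP1 (400 nM final) combined with mTOR (0.5 nM final), incubated at rt; buffer HEPES pH 7.5 with 10 mM MnCl2, NaCl, EGTA, DTT. Then stopped with EDTA/Tb3+-anti-p4EBP1 pT46 Ab (0.5 nM). Plates read after 15 min.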

PI3K alpha = target: T3, PI3K alpha (Homo sapiens, UniProt P42336); experiment: PI3K alpha kinase assay (Kinase-Glo luminescence); assay type: biochemical
T3 construct: p85(iSH2) fusion partner (see partner chain) (N); His tag (C); made in house; host or cells: baculovirus; Tn5 (Trichoplusia ni) or TiniPro insect cells
How it was run: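 PI3K alpha at 10 nM with 1 μM ATP and 10 μg/mL phosphatidylinositol in 10 mM TRIS pH 7.5, 3 mM MgCl2, 50 mM NaCl, 0.05% CHAPS, 1 mM DTT, 60 min at room temperature. Remaining ATP read by Kinase-Glo luminescence. IC50 by 4-parameter fit over 8 concentrations.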

T1 sequence (P42338 with tags, fused parts or gaps limits assumed): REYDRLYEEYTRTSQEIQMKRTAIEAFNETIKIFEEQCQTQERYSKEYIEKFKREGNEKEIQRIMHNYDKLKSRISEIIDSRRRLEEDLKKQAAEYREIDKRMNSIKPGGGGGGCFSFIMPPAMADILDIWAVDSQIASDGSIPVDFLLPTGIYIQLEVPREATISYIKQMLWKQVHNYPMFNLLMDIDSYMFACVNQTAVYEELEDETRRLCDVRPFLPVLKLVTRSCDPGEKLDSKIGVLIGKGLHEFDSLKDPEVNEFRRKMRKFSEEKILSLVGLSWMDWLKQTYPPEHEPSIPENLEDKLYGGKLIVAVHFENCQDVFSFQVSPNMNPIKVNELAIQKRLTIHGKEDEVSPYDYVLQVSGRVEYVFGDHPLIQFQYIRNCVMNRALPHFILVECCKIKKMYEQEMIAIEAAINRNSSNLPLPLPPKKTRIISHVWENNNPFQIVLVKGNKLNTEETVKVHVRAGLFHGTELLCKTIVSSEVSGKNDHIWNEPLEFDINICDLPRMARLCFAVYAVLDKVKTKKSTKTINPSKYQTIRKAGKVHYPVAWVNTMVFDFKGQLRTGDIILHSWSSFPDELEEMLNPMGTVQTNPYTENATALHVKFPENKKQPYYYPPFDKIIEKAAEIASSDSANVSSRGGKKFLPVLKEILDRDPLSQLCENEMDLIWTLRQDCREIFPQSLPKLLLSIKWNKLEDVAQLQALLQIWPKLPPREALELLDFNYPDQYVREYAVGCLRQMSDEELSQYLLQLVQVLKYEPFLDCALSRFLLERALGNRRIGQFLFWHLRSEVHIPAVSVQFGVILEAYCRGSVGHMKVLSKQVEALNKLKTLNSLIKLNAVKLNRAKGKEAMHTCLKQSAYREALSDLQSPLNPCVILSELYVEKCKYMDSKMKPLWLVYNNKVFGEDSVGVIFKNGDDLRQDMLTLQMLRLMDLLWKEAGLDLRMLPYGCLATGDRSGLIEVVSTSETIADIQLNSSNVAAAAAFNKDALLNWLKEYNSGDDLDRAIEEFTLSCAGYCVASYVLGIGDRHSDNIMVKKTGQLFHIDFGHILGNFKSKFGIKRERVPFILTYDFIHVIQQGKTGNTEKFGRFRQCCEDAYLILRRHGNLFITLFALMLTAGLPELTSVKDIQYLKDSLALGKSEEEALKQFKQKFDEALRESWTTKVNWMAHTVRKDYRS
T2 sequence (P42345 1360-2549 limits assumed): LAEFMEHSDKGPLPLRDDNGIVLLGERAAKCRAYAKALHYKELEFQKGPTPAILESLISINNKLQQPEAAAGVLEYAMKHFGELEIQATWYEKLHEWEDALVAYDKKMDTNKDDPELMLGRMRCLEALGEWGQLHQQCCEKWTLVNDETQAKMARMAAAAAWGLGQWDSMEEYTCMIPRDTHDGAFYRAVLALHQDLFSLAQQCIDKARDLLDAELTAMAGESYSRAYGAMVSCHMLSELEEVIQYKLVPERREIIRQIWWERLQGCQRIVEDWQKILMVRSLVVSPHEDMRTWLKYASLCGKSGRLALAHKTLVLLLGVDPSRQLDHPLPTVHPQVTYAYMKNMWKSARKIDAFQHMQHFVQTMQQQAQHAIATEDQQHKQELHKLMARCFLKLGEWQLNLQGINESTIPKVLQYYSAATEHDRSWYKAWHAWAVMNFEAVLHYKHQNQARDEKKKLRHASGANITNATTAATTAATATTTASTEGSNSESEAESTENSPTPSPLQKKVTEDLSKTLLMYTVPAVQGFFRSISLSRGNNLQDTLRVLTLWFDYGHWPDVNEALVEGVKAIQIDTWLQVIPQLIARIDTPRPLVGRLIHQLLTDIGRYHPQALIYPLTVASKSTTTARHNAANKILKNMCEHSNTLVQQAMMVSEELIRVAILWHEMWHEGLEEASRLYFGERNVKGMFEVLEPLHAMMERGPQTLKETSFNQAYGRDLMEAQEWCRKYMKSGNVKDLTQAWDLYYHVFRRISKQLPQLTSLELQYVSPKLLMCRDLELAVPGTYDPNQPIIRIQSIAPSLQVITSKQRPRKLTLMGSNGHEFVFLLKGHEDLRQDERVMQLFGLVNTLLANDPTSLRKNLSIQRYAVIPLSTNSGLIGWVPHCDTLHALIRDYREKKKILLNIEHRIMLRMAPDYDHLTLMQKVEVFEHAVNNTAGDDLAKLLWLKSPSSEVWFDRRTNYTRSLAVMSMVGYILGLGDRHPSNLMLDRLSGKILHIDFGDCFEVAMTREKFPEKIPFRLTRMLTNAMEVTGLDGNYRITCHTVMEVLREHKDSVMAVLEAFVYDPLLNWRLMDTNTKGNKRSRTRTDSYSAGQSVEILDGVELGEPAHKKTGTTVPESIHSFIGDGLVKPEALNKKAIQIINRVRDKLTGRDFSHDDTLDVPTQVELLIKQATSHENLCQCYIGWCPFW
T3 sequence (P42336 with tags, fused parts or gaps limits assumed): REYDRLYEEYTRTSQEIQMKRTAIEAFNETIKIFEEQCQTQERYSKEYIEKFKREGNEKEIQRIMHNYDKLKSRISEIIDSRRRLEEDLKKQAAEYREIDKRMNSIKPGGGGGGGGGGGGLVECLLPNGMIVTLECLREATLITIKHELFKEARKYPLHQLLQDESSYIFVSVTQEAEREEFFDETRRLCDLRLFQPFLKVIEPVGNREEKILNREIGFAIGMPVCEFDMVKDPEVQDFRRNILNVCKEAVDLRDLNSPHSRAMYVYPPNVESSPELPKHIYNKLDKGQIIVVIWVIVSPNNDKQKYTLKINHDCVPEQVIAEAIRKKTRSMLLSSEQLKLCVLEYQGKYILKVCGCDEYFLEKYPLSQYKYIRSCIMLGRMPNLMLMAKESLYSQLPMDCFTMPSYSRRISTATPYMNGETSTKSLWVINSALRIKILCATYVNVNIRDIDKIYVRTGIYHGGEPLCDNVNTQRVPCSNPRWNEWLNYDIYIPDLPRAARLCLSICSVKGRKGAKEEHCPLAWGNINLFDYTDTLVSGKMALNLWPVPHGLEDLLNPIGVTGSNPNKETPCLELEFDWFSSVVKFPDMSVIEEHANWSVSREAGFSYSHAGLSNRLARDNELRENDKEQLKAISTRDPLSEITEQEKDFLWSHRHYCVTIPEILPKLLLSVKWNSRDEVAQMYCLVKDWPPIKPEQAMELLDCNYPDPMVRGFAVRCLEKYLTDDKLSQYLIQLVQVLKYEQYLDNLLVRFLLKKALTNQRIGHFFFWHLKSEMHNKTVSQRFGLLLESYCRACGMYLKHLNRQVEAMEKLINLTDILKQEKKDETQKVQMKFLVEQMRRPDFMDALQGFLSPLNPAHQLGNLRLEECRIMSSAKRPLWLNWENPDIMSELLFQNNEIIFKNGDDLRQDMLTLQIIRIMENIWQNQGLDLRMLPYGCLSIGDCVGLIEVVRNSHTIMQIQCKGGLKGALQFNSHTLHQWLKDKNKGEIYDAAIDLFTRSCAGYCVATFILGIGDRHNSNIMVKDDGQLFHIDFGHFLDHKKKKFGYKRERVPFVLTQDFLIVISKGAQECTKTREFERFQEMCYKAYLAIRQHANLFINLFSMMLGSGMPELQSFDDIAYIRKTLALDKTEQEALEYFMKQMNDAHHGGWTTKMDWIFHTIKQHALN

SMILES | IC50 (PI3K beta) | IC50 (mTOR) | IC50 (PI3K alpha)
CNc1cc(-c2ccc3ncc4c(c3c2)n(-c2cn(C)nc2C)c(=O)n4C)cnc1F [Example 150.2, 1-(1,3-Dimethyl-1H-pyrazol-4-yl)-8-(6-fluoro-5-methylamino-pyridin-3-yl)-3-methyl-1,3-dihydro-imidazo[4,5-c]quinolin-2-one] | 0.012 µM | 0.008 µM | 0.009 µM
CCNc1cc(-c2ccc3ncc4c(c3c2)n(-c2c(C)nn(C)c2C)c(=O)n4C)cnc1F [Example 154.1, 8-(5-Ethylamino-6-fluoro-pyridin-3-yl)-3-methyl-1-(1,3,5-trimethyl-1H-pyrazol-4-yl)-1,3-dihydro-imidazo[4,5-c]quinolin-2-one] | 0.098 µM | 0.619 µM | 0.157 µM
Cc1ncc(-c2ccc3ncc4c(c3c2)n(-c2cn(C)nc2C)c(=O)n4C)cc1N(C)C [Example 164, 8-(5-Dimethylamino-6-methyl-pyridin-3-yl)-1-(1,3-dimethyl-1H-pyrazol-4-yl)-3-methyl-1,3-dihydro-imidazo[4,5-c]quinolin-2-one] | 0.011 µM | < 0.003 µM | 0.005 µM
CCNc1ncc(-c2ccc3ncc4c(c3c2)n(-c2cn(C)nc2C)c(=O)n4C)cc1COCC [Example 167, 1-(1,3-Dimethyl-1H-pyrazol-4-yl)-8-(5-ethoxymethyl-6-ethylamino-pyridin-3-yl)-3-methyl-1,3-dihydro-imidazo[4,5-c]quinolin-2-one] | 0.084 µM | 0.058 µM | 0.033 µM
CCn1cc(-n2c(=O)n(C)c3cnc4ccc(-c5cnc(N)c(COC)c5)cc4c32)c(C)n1 [Example 168.2, 8-(6-Amino-5-methoxymethyl-pyridin-3-yl)-1-(1-ethyl-3-methyl-1H-pyrazol-4-yl)-3-methyl-1,3-dihydro-imidazo[4,5-c]quinolin-2-one] | 0.068 µM | 0.041 µM | 0.023 µM
Cc1ncc(-c2ccc3ncc4c(c3c2)n(-c2cn(C)nc2C)c(=O)n4C)cc1O [Example 185.1, 1-(1,3-Dimethyl-1H-pyrazol-4-yl)-8-(5-hydroxy-6-methyl-pyridin-3-yl)-3-methyl-1,3-dihydro-imidazo[4,5-c]quinolin-2-one] | 0.009 µM | < 0.003 µM | 0.005 µM
Cc1ncc(-c2ccc3ncc4c(c3c2)n(-c2cn(C)nc2C)c(=O)n4C)cc1OC(CF)CF [Example 189, 1-(1,3-Dimethyl-1H-pyrazol-4-yl)-8-[5-(2-fluoro-1-fluoromethyl-ethoxy)-6-methyl-pyridin-3-yl]-3-methyl-1,3-dihydro-imidazo[4,5-c]quinolin-2-one] | 0.005 µM | 0.017 µM | 0.004 µM
Cc1nn(C)cc1-n1c(=O)n(C)c2cnc3ccc(-c4cnc(CO)c(OC(C)C)c4)cc3c21 [Example 190, 1-(1,3-Dimethyl-1H-pyrazol-4-yl)-8-(6-hydroxymethyl-5-isopropoxy-pyridin-3-yl)-3-methyl-1,3-dihydro-imidazo[4,5-c]quinolin-2-one] | 0.036 µM | 0.037 µM | 0.013 µM
COCc1ncc(-c2ccc3ncc4c(c3c2)n(-c2cn(C)nc2C)c(=O)n4C)cc1OC(C)C [Example 191.1, 1-(1,3-Dimethyl-1H-pyrazol-4-yl)-8-(5-isopropoxy-6-methoxymethyl-pyridin-3-yl)-3-methyl-1,3-dihydro-imidazo[4,5-c]quinolin-2-one] | 0.024 µM | 0.025 µM | 0.014 µM
COc1cc(-c2ccc3ncc4c(c3c2)n(-c2cn(C)nc2C)c(=O)n4C)cnc1CO [Example 193, 1-(1,3-Dimethyl-1H-pyrazol-4-yl)-8-(6-hydroxymethyl-5-methoxy-pyridin-3-yl)-3-methyl-1,3-dihydro-imidazo[4,5-c]quinolin-2-one] | 0.05 µM | 0.021 µM | 0.019 µM
COCc1ncc(-c2ccc3ncc4c(c3c2)n(-c2cn(C)nc2C)c(=O)n4C)cc1OC [Example 195.1, 1-(1,3-Dimethyl-1H-pyrazol-4-yl)-8-(5-methoxy-6-methoxymethyl-pyridin-3-yl)-3-methyl-1,3-dihydro-imidazo[4,5-c]quinolin-2-one] | 0.072 µM | 0.048 µM | 0.018 µM
COCc1ncc(-c2ccc3ncc4c(c3c2)n(-c2cn(C(C)C)nc2C)c(=O)n4C)cc1OC [Example 195.2, 1-(1-Isopropyl-3-methyl-1H-pyrazol-4-yl)-8-(5-methoxy-6-methoxymethyl-pyridin-3-yl)-3-methyl-1,3-dihydro-imidazo[4,5-c]quinolin-2-one] | 0.163 µM | 0.087 µM | 0.037 µM
CCn1cc(-n2c(=O)n(C)c3cnc4ccc(-c5cnc(COC)c(OC)c5)cc4c32)c(C)n1 [Example 195.3, 1-(1-Ethyl-3-methyl-1H-pyrazol-4-yl)-8-(5-methoxy-6-methoxymethyl-pyridin-3-yl)-3-methyl-1,3-dihydro-imidazo[4,5-c]quinolin-2-one] | 0.161 µM | 0.076 µM | 0.048 µM
[2H]C([2H])([2H])OCc1ncc(-c2ccc3ncc4c(c3c2)n(-c2cn(C)nc2Cl)c(=O)n4C)cc1OC [Example 199, 1-(3-Chloro-1-methyl-1H-pyrazol-4-yl)-8-(5-methoxy-6-trideuteromethoxymethyl-pyridin-3-yl)-3-methyl-1,3-dihydro-imidazo[4,5-c]quinolin-2-one] | 0.027 µM | 0.012 µM | 0.015 µM
COCc1cc(-c2ccc3ncc4c(c3c2)n(-c2cn(C)nc2C)c(=O)n4C)cnc1OC [Example 202, 1-(1,3-Dimethyl-1H-pyrazol-4-yl)-8-(6-methoxy-5-methoxymethyl-pyridin-3-yl)-3-methyl-1,3-dihydro-imidazo[4,5-c]quinolin-2-one] | 0.013 µM | 0.029 µM | 0.011 µM
Cc1nn(C)cc1-n1c(=O)n(C)c2cnc3ccc(-c4cnc5c(c4)OCCN5C)cc3c21 [Example 209, 1-(1,3-Dimethyl-1H-pyrazol-4-yl)-3-methyl-8-(4-methyl-3,4-dihydro-2H-pyrido[3,2-b][1,4]oxazin-7-yl)-1,3-dihydro-imidazo[4,5-c]quinolin-2-one] | 0.273 µM | 0.021 µM | 0.006 µM
Cc1nn(C)cc1-n1c(=O)n(C)c2cnc3ccc(-c4cncc(C(C)(C)O)c4)cc3c21 [Example 215.2, 1-(1,3-Dimethyl-1H-pyrazol-4-yl)-8-[5-(1-hydroxy-1-methyl-ethyl)-pyridin-3-yl]-3-methyl-1,3-dihydro-imidazo[4,5-c]quinolin-2-one] | 0.01 µM | 0.009 µM | 0.014 µM
Cc1nn(C)cc1-n1c(=O)n(C)c2cnc3ccc(-c4cncc(C5(O)CCCC5)c4)cc3c21 [Example 218, 1-(1,3-Dimethyl-1H-pyrazol-4-yl)-8-[5-(1-hydroxy-cyclopentyl)-pyridin-3-yl]-3-methyl-1,3-dihydro-imidazo[4,5-c]quinolin-2-one] | 0.019 µM | 0.041 µM | 0.013 µM
Cc1nn(C)cc1-n1c(=O)n(C)c2cnc3ccc(-c4cncc(C(C)(C)C#N)c4)cc3c21 [Example 220.1, 2-{5-[1-(1,3-Dimethyl-1H-pyrazol-4-yl)-3-methyl-2-oxo-2,3-dihydro-1H-imidazo[4,5-c]quinolin-8-yl]-pyridin-3-yl}-2-methyl-propionitrile] | 0.023 µM | 0.027 µM | 0.009 µM
CNC(=O)c1cc(-c2ccc3ncc4c(c3c2)n(-c2cn(C(C)C)nc2C)c(=O)n4C)cnc1N [Example 224.2, 2-Amino-5-[1-(1-isopropyl-3-methyl-1H-pyrazol-4-yl)-3-methyl-2-oxo-2,3-dihydro-1H-imidazo[4,5-c]quinolin-8-yl]-N-methyl-nicotinamide] | 0.28 µM | 0.024 µM | 0.093 µM
COc1ncc(-c2ccc3ncc4c(c3c2)n(-c2cn(C)nc2C)c(=O)n4C)c(OC)n1 [Example 234.2, 8-(2,4-Dimethoxy-pyrimidin-5-yl)-1-(1,3-dimethyl-1H-pyrazol-4-yl)-3-methyl-1,3-dihydro-imidazo[4,5-c]quinolin-2-one] | 0.025 µM | 0.01 µM | < 0.003 µM
CCn1cc(-n2c(=O)n(C)c3cnc4ccc(-c5cnc(NC)nc5OC)cc4c32)c(C)n1 [Example 236, 1-(1-Ethyl-3-methyl-1H-pyrazol-4-yl)-8-(4-methoxy-2-methylamino-pyrimidin-5-yl)-3-methyl-1,3-dihydro-imidazo[4,5-c]quinolin-2-one] | 0.09 µM | < 0.003 µM | 0.015 µM
COc1ccc(-c2ccc3ncc4[nH]c(=O)n(-c5cn(C)nc5C)c4c3n2)cc1OC [Example 249, 8-(3,4-dimethoxy-phenyl)-1-(1,3-dimethyl-1H-pyrazol-4-yl)-1,3-dihydro-1,3,5,9-tetraaza-cyclopenta[a]naphthalen-2-one] | 0.033 µM | 0.03 µM | 0.005 µM

— patent US20140005163A1 (NOVARTIS AG, priority 2010, published 2014)
